The values below come from article PMC6268361, “Development and Validation of a Bioanalytical Method for Quantification of 2,6-Bis-(4-hydroxy-3-methoxybenzylidene)-cyclohexanone (BHMC) in Rat Plasma” (Molecules, 2012).

Data set [1] deals with cellular synthesis of nitric oxide and several proinflammatory cytokines. Set-up: method as in PMID 19958764, PMID 21114991. The note with it: through inhibition of signaling pathways incl. phosphorylation of p38 MAPK; cited from earlier work.
Data set [2] is described as follows: Pharmacokinetic study in rats after i.v. administration (HPLC-UV/VIS of plasma, non-compartmental analysis). It is filed as in vivo, male Sprague Dawley rats. The note with it: i.v. 10 mg/kg. As for the experimental part: Samples were analyzed with a Flexar HPLC system that consisted of a UV/VIS detector, a quaternary pump and a solvent manager with built-in degasser (PerkinElmer, Waltham, MA, USA). The separation was achieved using a Waters Symmetry C18 column (150 × 4.6 mm I.D.; 5 µm; Waters, Milford, MA, USA) protected by a Waters Symmetry C18 Guard Column (20 × 3.9 mm I.D.; 5 µm; Waters, Milford, MA, USA) at ambient temperature. The system’s pump delivered a constant flow of 1 mL/min. The volume of injection was 50 µL. BHMC and IS were eluted with a gradient method that gave an initial flow of 100% water for 1 min, changing linearly to 100% methanol in 11 min. Pure methanol was pumped continuously for 9 min. After this, 100% water was regained to stabilize the chromatographic system for 6 min. BHMC and IS were detected at a visible range of 380 nm. The analyses were repeated according to the gradient elution at every analytical cycle. The chromatograms were analyzed with Chromera Manager 2.1 (PerkinElmer, Waltham, MA, USA).
Plasma samples (200 µL) were pipetted into 1.5 mL microcentrifuge tubes. To each tube, deionized water (80 µL) was added and the tubes vortexed at medium speed for 20 s. Next, IS (62.5 µg/mL, 40 µL) was added and the mixtures vortexed again at medium speed for 20 s. A volume of 500 µL extraction reagent (95% ethyl acetate, 5% methanol) was loaded into each tube followed by a 60 s sonication and high speed vortexing for 60 s. The tubes were allowed to settle for 5 min followed by centrifugation at 13,500 g for 5 min at a temperature of 15 °C. After centrifugation the upper organic layer was carefully removed into another clean microcentrifuge tube. The organic layer was dried under a stream of nitrogen gas with a low heat setting. The dried extracted product was resuspended in 200 µL of a solution consisting of 10% methanol and 90% deionized water, sonicated for 60 s then vortexed at medium speed for 30 s. The tubes were left at room temperature in the dark for at least 10 min, followed by a repeat vortex mixing. The content was then filtered with 0.45 µm PTFE syringe filters (Titan, West Springfield, MA, USA) into a clean HPLC injection sample vial for HPLC assay.
Experiments was conducted on male Sprague Dawley rats (8–10 weeks old, 180–200 g) supplied by the Faculty of Veterinary Medicine, Universiti Putra Malaysia. All rats were housed at 23 ± 2 °C with 12 h of light/dark cycle with access to food and water ad libitum. They were acclimatized and habituated to the laboratory condition for at least one week prior to experimentation and were used only once throughout the experiments. All experimental protocols involving animals were performed in accordance with the current guidelines for the care of laboratory animals and the ethical guidelines for animal experimentation Animal Care and Use Committee (ACUC) as approved by the Animal Experimentation Ethics Committee of Universiti Putra Malaysia. Six rats were used. BHMC, solubilized in 5% ethanol (Thermo Fisher Scientific, Waltham, MA, USA), 5% Tween-20 (Sigma-Aldrich, St. Louis, MO, USA) and 90% deionized water, was injected intravenously to each rat at a dose of 10 mg/kg body weight. Blood samples (0.5 mL) were obtained from the tail vein at 5, 15, 30, 60, 120, 240, 480 and 720 min following BHMC administration. In order to prevent coagulation and enable plasma collection 1 µg of heparin sodium was added to each blood sample. Each sample was immediately centrifuged at 3,000 g for 10 min and the plasma was processed as described under sample preparation section. Pharmacokinetic parameters were estimated using non-compartmental pharmacokinetic analysis.

Another data set deals with lethal sepsis in mice. On the set-up: method as in PMID 21114991. The note with it: compared with curcumin; cited from earlier work.
Data set [3] has as its system mouse model of inflammatory pain. Set-up: method as in PMID 12609665. To be noted: cited from earlier work.
On the set-up of data set [4]: method as in PMID 19110321, PMID 14997198, PMID 17400527, PMID 17999464. The note with it: cited from earlier work.
[5] abbreviates: male, Sprague Dawley, rat, plasma, iv, n = 6, mean ± SD, non-compartmental analysis.

One may read the AUC(0-inf) as total exposure, with the tail of the curve extrapolated. Read a high AUC(0-inf) as high exposure. As a reminder, the AUC(0-t) is the area under the concentration-time curve up to a stated or last time point. A high value points to more exposure. By clearance is commonly meant the volume of plasma or blood freed of the substance per unit of time. Usually Vd stands for the apparent volume that relates the amount in the body to the concentration in plasma or blood. Take `COc1cc(C=C2CCCC(=Cc3ccc(O)c(OC)c3)C2=O)ccc1O` [BHMC, 2,6-bis-(4-hydroxy-3-methoxybenzylidene)-cyclohexanone]: the “Effect on cellular synthesis of nitric oxide and several proinflammatory cytokines” value in data set [1] is listed as “significant inhibitory effects”. Besides, the “Time post-treatment up to which quantifiable in plasma of all rats” value in data set [2] (LOQ 0.02 µg/mL) was “at least 8 h”. In data set [2] (setting [5]), this compound showed an area under the curve AUC(0-inf) of 0.989 µg·h/mL and an AUC(0-t) of 0.937 µg·h/mL. Also, in data set [2] (male, Sprague Dawley, rat, plasma, iv, n = 6, mean ± SD, non-compartmental analysis, read-out: Cl (clearance)), the clearance is 5.3 ± 0.7 mL/min. For the same compound, the Cmax in data set [2] (male, Sprague Dawley, rat, plasma, iv, n = 6, mean ± SD, non-compartmental analysis, read-out: Cmax (maximum plasma concentration)) was found to be 2.91 ± 0.15 µg/mL. For the same compound, the half-life in data set [2] (male, Sprague Dawley, rat, plasma, iv, n = 6, mean ± SD, non-compartmental analysis, read-out: T1/2 (half-life)) worked out at 1.5 ± 0.124 h. Moreover, the Vd in data set [2] (male, Sprague Dawley, rat, plasma, iv, n = 6, mean ± SD, non-compartmental analysis, read-out: Vd (volume of distribution)) was 0.69 ± 0.038 L. The “Reduction of mortality following severe sepsis” value in the data set on lethal sepsis in mice is on record as “superior to curcumin in reducing mortality”. The Analgesic effect entry in data set [3] is given as “potential analgesic effect”.

On to `COc1cc(C=CC(=O)CC(=O)C=Cc2ccc(O)c(OC)c2)ccc1O` [Curcumin, 1,7-bis(4-hydroxy-3-methoxyphenyl)-1,6-heptadiene-3,5-dione], for which, in data set [4], the “Bioavailability via oral administration” value is reported as “low bioavailability”.
